Measurements from PMC12608245, “Integrated Molecular and Functional Analysis of Hop Ethanolic Extract in Caco-2 Cells: Insights into Inflammation, Barrier Function, and Transport” (International Journal of Molecular Sciences, 2025).

Assays:
[1] = test system: IL-6; assay: IL-6 production in IL-1β-stimulated Caco-2 cells (ELISA); type: cell-based; settings: IL-1β 10 ng/mL, 24 h
Experimental: (§1) Caco-2 cells were seeded in 48-well plates and cultured as described above. […] Prior to application, HLE was dissolved in DMSO and sterilely transferred into fresh serum-free medium. To remove high-molecular-weight pyrogens, the extract was subjected to a two-step ultrafiltration using a Microsep™ Advance Centrifugal Device with 30 kDa and 100 kDa cut-offs (Pall Corporation, Port Washington, NY, USA), as described in Kruk et al.. After ultrafiltration, 10% FBS was added to the medium. Following a one-hour pre-incubation, IL-1β was added to each well to achieve a final concentration of 10 ng/mL. After 24 h of incubation, the supernatants were collected, and IL-6 and IL-8 concentrations were determined using the sandwich ELISA method (BD Biosciences Pharmingen).

[2] = test system: Caco-2 monolayers; assay: Transport and metabolism of HLE constituents through Caco-2 monolayers; type: in vitro ADME; settings: apical to basolateral, 24 h incubation of HLE with Caco-2, based on the peak area ratio
Experimental: Caco-2 cells were seeded and cultivated as described for the TEER measurements. After 21 days of cultivation, HLE solutions at concentrations of 12.5–100 µg/mL (prepared as for the cell viability assay) were added to the apical compartment. As a non-treated control, medium containing 0.5% DMSO was used. Supernatants from both the apical and basolateral compartments were collected at 0 h and 24 h for chromatographic analysis.
Analyses were performed using a Vanquish UHPLC system coupled with an Exploris 120 Orbitrap mass spectrometer (Thermo Scientific, Bremen, Germany) equipped with a Kinetex XB-C18 column (150 × 2.1 mm, 1.7 µm). Mobile phases consisted of (A) water and (B) acetonitrile:water (4:1, v/v), both containing 0.1% HCOOH and 5 mM NH4HCOO. […] Electrospray settings: spray voltage 3.5 kV (+)/2 kV (−); sheath/aux/sweep gas 48/11/2 Arb; ion transfer tube 320 °C; vaporizer 280 °C. Data were acquired in full-scan mode (resolution 120,000, polarity switching). MS2 spectra were obtained using stepped NCE 30/50% (resolution 15,000) and ddMS2 settings of four fragmentation scans per full scan, single-charge filter, isotope and dynamic exclusion enabled. Experimental samples were analyzed with and without fragmentation exclusion lists generated from control samples to enhance MS2 coverage. Data processing was performed in Compound Discoverer 3.4 (Thermo Scientific, Austin, TX, USA). Signals corresponding to hop extract constituents were identified based on comparison of donor compartment solution and method blank. Similarity analysis and molecular networking (mzMine 4.6) were based on shared fragments or constant m/z shifts.

[3] = test system: Caco-2 monolayers; assay: TEER measurement of Caco-2 monolayer; type: cell-based; settings: for TEER: IL-1β control
Experimental: Caco-2 cells were cultivated in 6-well plates on a Transwell transparent insert (Greiner Bio-One, Kremsmünster, Austria) with density of 6 × 10^5 cells/insert for 21 days. (37 °C, 5% CO2) Medium that was used contained the earlier mentioned ingredients. Three mL of medium was added to the apical compartment, and 3.5 mL was added to the basolateral compartment. The medium was replaced three times per week. CellZscope systems for 24-well and 6-well formats (nanoAnalytics GmbH, Münster, Germany) were used to analyze the TEER. Solutions were made as described in Section 4.5 with concentrations 12.5–100 µg/mL. As non-treated control, medium containing 0.5% DMSO was used. The medium in the apical compartment was replaced with the HLE solutions or control. After a 24-h incubation period 25 ng/mL of IL-1β was added in basolateral compartment.

[4] = test system: IL-8; assay: IL-8 production in IL-1β-stimulated Caco-2 cells (ELISA); type: cell-based; settings: IL-1β-stimulated control, IL-1β 10 ng/mL, 24 h
Experimental: as §1

[5] = test system: IL-8; assay: Caco-2 inflammatory model selection, IL-8 production (ELISA); type: cell-based; settings: 24 h
Experimental: (§2) Cells were seeded in 48-well plates and cultured as described above. After reaching 100% confluence, they were stimulated with different concentrations and combinations of the following factors: TNF-α (1, 12.5, 25 ng/mL), LPS from E. coli (1, 5, 10 µg/mL), IFN-γ (1, 10, 50 ng/mL), a mixture of IFN-γ and TNF-α (1 + 1, 10 + 10, 50 + 50 ng/mL), and IL-1β (0.01, 0.02, 0.04, 0.08, 1, 12.5, 25 ng/mL). […] After 24 h of incubation, the supernatants were collected, and IL-6 and IL-8 concentrations were determined using the sandwich ELISA method (BD Biosciences Pharmingen, San Diego, CA, USA).

[6] = test system: Caco-2 monolayers; set-up: method as in Van de Walle et al. [20]; settings: IL-1β 25 ng/mL, Caco-2 cell monolayers; ref Van de Walle et al. [20]; cited from earlier work
[7] = test system: IL-6; assay: Caco-2 inflammatory model selection, IL-6 production (ELISA); type: cell-based; settings: IL-1β 25 and 12.5 ng/mL, 24 h
Experimental: as §2

| Transport Efficiency (%) [2] | Compound | further results |
| --- | --- | --- |
| 3.5% | COc1cc(O)c(CC=C(C)C)c(O)c1C(=O)/C=C/c1ccc(O)cc1 [Peak M13, xanthohumol] | – |
| 9.5% | CC(C)=CCC1=C(O)C(O)(CC=C(C)C)C(=O)C(C(=O)C(C)C)=C1O (stereo not drawn) [Peak M14, cohumulone] | – |
| 4.3% | CC(C)=CCC1=C(O)C(O)(CC=C(C)C)C(=O)C(C(=O)CCC(C)C)=C1O (stereo not drawn) [Peak M17, prehumulone] | – |
| 3.7% | hulupone/adhulupone [Peak M4] | – |
| 17.4% | hydroxy-n-humulinone/hydroxyadhumolinone [Peak M11] | – |
| 2% | tetrahydro-iso-α-acid [Peak M6] | – |

Continued, compound first:

| Compound | Transport Efficiency (%) [2] | further results |
| --- | --- | --- |
| C[C@@H]1C[C@H]2[C@@H]3CCC4=CC(=O)C=C[C@]4(C)[C@@]3(F)[C@@H](O)C[C@]2(C)[C@@]1(O)C(=O)CO [Dexamethasone, reference compound] | – | IL-6 level ([1]; dexamethasone 20 µM (positive control), compared with the IL-1β-stimulated control): 3.7 ± 0.3% |
| CC(C)=CCC(=O)[C@@]1(O)C(=O)C(C(=O)C(C)C)=C(O)[C@@]1(O)CC=C(C)C [Peak M10, cohumulinone] | 9% | – |
| IL-1β: pro-inflammatory cytokine used as inflammatory trigger | – | TEER ([3]; 33 h): 83.97 ± 4.20%; TEER ([3]; 42 h): 84.25 ± 1.33%; TEER value decrease ([3]; after 24 h of exposure to 25 ng/mL IL-1β): 16 ± 1%; IL-8 level [4]: 100.8 ± 5.5%; IL-6 level ([1]; IL-1β-stimulated control): 103.3 ± 1.7%; IL-8 secretion versus non-treated control ([5]; IL-1β 25, 12.5, 1, 0.08 and 0.04 ng/mL): significantly increased IL-8 secretion; TEER reduction [6]: approximately 20 ± 4%; IL-6 secretion versus non-treated control [7]: increase IL-6 at concentrations of 25 and 12.5 ng/mL significantly |
| TNF-α | – | IL-8 secretion versus non-treated control ([5]; TNF-α 25 and 12.5 ng/mL): significantly increased IL-8 secretion |
| n-humulinone/adhumulinone isomer 1 [Peak M7] | 6.9% | – |
| n-humulinone/adhumulinone isomer 2 [Peak M12] | 11.7% | – |
| n-humulone/adhumulone isomer 1 [Peak M15] | 8% | – |
| n-humulone/adhumulone isomer 2 [Peak M16] | 9.6% | – |
